Our source for the inhibition values is publication PMC11855827, “High-Throughput Screening of Five Compound Libraries for Anthelmintic Activity and Toxicity Leads to the Discovery of Two Flavonoid Compounds” (International Journal of Molecular Sciences, 2025).

Like-named read-outs stand apart in the source and are kept apart here.

The assay has as its system C. elegans. Briefly: microbe, parasite or virus in culture. Particulars: Caenorhabditis elegans.
Where [1] appears, read: 0 h, read-out: Percentage of motility inhibition 0 h, Table S2, C. elegans SS assay, 110 μM, 0 h, averages of 4 data points.
Where [2] appears, read: 24 h, read-out: Percentage of motility inhibition 24 h, Table S2, C. elegans SS assay, 110 μM, 24 h, averages of 4 data points.
[3] abbreviates: 0 h, read-out: Percentage of motility inhibition 0 h.
Where [4] appears, read: 24 h, read-out: Percentage of motility inhibition 24 h.

One may read the inhibition as the drop in the measured response relative to a control, in per cent. For `C=C[C@@]12CN(C)[C@H]3C[C@]14C(=Nc1ccccc14)[C@H]1C[C@@H]2[C@@H]3CO1` [Koumine], the inhibition at 110 µM under setting [1] was found to be 16% and the inhibition at 110 µM under setting [2] was found to be 18%.
On the same counts, the results for `O=C(CCc1ccc(O)c(O)c1)NCCCNCCCCNCCCNC(=O)CCc1ccc(O)c(O)c1` [Kukoamine A] are 0% and 32%.
For the compound `C=C(C)[C@H](CC=C(C)C)Cc1c(O)cc(OC)c2c1O[C@H](c1ccc(O)cc1O)CC2=O` [Kurarinone], the inhibition at 110 µM reads like this: under setting [1], 0%; under setting [2], 0%.
With `C=C(C)[C@H](CC=C(C)C)Cc1c(O)cc(O)c2c1O[C@H](c1ccccc1O)CC2=O` [Kushenol A], the inhibition at 110 µM under setting [1] is 14% and the inhibition at 110 µM under setting [2] is 10%.
Turning to `N=C(N)NCCC[C@H](N)C(=O)O` [L-Arginine], the inhibition at 110 µM under setting [3] was 0% and the inhibition at 110 µM under setting [4] amounted to 0%.
On to `O=C1O[C@H]([C@@H](O)CO)C(O)=C1O` [L-Ascorbic acid], for which the inhibition at 110 µM reads like this: under setting [1], 5%; under setting [2], 9%.
Turning to `N[C@@H](CC(=O)O)C(=O)O` [L-Aspartic acid], the inhibition at 110 µM under setting [1] is 20% and the inhibition at 110 µM under setting [2] was 30%.
With `N[C@@H](CS)C(=O)O` [L-Cysteine], the inhibition at 110 µM was found to be 4% under setting [1] and 7% under setting [2].
In the case of `N[C@@H](CCC(=O)O)C(=O)O` [L-Glutamic acid], the inhibition at 110 µM runs as follows: under setting [1], 3%; under setting [2], 1%.
For `NC(=O)CC[C@H](N)C(=O)O` [L-Glutamine], the inhibition at 110 µM is, setting by setting: under setting [1], 3%; under setting [2], 0%.
Regarding `N[C@@H](Cc1c[nH]cn1)C(=O)O` [L-Histidine], the inhibition at 110 µM was 23% under setting [1] and 22% under setting [2].
Consider `CC[C@H](C)[C@H](N)C(=O)O` [L-Isoleucine], for which the inhibition at 110 µM by setting is: under setting [1], 14%; under setting [2], 17%.
The corresponding values for `C[C@H](O)C(=O)O` [L-Lactic acid] are 16% and 21%.
The corresponding values for `CC(C)C[C@H](N)C(=O)O` [L-Leucine] are 4% and 11%.
Consider `NCCCC[C@H](N)C(=O)O` [L-Lysine], for which the inhibition at 110 µM is, setting by setting: under setting [3], 19%; under setting [4], 2%.
As for `CSCC[C@H](N)C(=O)O` [L-Methionine], the inhibition at 110 µM runs as follows: under setting [1], 0%; under setting [2], 0%.
As for `N[C@@H](Cc1ccccc1)C(=O)O` [L-Phenylalanine], the inhibition at 110 µM is 23% under setting [1] and 21% under setting [2].
Turning to `O=C(O)[C@@H]1CCCN1` [L-Proline], the inhibition at 110 µM is, setting by setting: under setting [1], 0%; under setting [2], 0%.
Regarding `N[C@@H](CO)C(=O)O` [L-Serine], the inhibition at 110 µM under setting [1] stood at 0% and the inhibition at 110 µM under setting [2] amounted to 0%.
Take `N[C@@H](Cc1c[nH]c2ccccc12)C(=O)O` [L-Tryptophan]: the inhibition at 110 µM under setting [3] is 26% and the inhibition at 110 µM under setting [4] was found to be 3%.
In the case of `N[C@@H](Cc1ccc(O)cc1)C(=O)O` [L-Tyrosine], the inhibition at 110 µM runs as follows: under setting [3], 34%; under setting [4], 8%.
Regarding `CC(C)[C@H](N)C(=O)O` [L-Valine], the inhibition at 110 µM runs as follows: under setting [1], 0%; under setting [2], 12%.
Consider `CC12CC3OC4O[C@H](CO)[C@@H](O)[C@H](O)[C@H]4OC34CC1C4(COC(=O)c1ccccc1)C(=O)O2` (stereo partly drawn) [Lactiflorin], for which the inhibition at 110 µM turned out to be 0% under setting [1] and 11% under setting [2].
As to `Nc1ccn([C@@H]2CS[C@H](CO)O2)c(=O)n1` [Lamivudine], the inhibition at 110 µM under setting [1] was found to be 23% and the inhibition at 110 µM under setting [2] came out at 5%.
